Assay results from patent US8614242B2, “1-(heterocyclic carbonyl)-2-substituted pyrrolidines” (Bayer Intellectual Property GmbH, priority 2010, dated 2013).

What was measured:
[1] = tested on: Venturia inaequalis; experiment: In vivo preventive test on Venturia inaequalis (apple scab); settings: 100 ppm of active ingredient, evaluated 10 days after inoculation
Experimental: After the spray coating has dried on, the plants are inoculated with an aqueous conidia suspension of the causal agent of apple scab (Venturia inaequalis) and then remain for 1 day in an incubation cabinet at approximately 20° C. and a relative atmospheric humidity of 100%.

[2] = tested on: Puccinia triticina; experiment: In vivo preventive test on Puccinia triticina (wheat); settings: 500 ppm of active ingredient, evaluated 8 days after inoculation
Experimental: In Vivo Preventive Test on Puccinia Triticina (Wheat)
Solvent: 49 parts by weight of N,N-dimethylacetamide
Emulsifier: 1 part by weight of alkylaryl polyglycol ether
After the spray coating has been dried, the plants are sprayed with a spore suspension of Puccinia triticina.
The test is evaluated 8 days after the inoculation.

[3] = tested on: Septoria tritici; experiment: In vivo preventive test on Septoria tritici (wheat); settings: 500 ppm of active ingredient, evaluated 21 days after inoculation
From the text: After the spray coating has been dried, the plants are sprayed with a spore suspension of Septoria tritici.

[4] = tested on: Blumeria graminis f.sp. hordei; experiment: In vivo preventive test on Blumeria graminis (barley); settings: 500 ppm of active ingredient, evaluated 7 days after inoculation
From the text: After the spray coating has been dried, the plants are dusted with spores of Blumeria graminis f.sp. hordei.

[5] = tested on: Fusarium nivale (var. majus); experiment: In vivo preventive test on Fusarium nivale (wheat); settings: 500 ppm of active ingredient, evaluated 5 days after inoculation
From the text: After the spray coating has been dried, the plants are slightly injured by using a sandblast and afterwards they are sprayed with a conidia suspension of Fusarium nivale (var. majus).

[6] = logP by HPLC on reversed-phase column (EEC Directive 79/831 Annex V.A8); format: physicochemical; settings: for logP: HPLC on reversed-phase column (C 18), 40° C., 0.1% aqueous formic acid and acetonitrile, linear gradient 10% to 90% acetonitrile
Experimental: In table 1, the logP values were determined in accordance with EEC Directive 79/831 Annex V.A8 by HPLC (High Performance Liquid Chromatography) on a reversed-phase column (C 18), using the method described below: Temperature: 40° C.; Mobile phases: 0.1% aqueous formic acid and acetonitrile; linear gradient from 10% acetonitrile to 90% acetonitrile. Calibration was carried out using unbranched alkan-2-ones (comprising 3 to 16 carbon atoms) with known logP values (determination of the logP values by the retention times using linear interpolation between two successive alkanones). lambda-max-values were determined using UV-spectra from 200 nm to 400 nm and the peak values of the chromatographic signals.

[7] = tested on: Leptosphaeria nodorum; experiment: In vivo preventive test on Leptosphaeria nodorum (wheat); settings: 500 ppm of active ingredient, evaluated 8 days after inoculation
From the text: After the spray coating has been dried, the plants are sprayed with a spore suspension of Leptosphaeria nodorum.

[8] = tested on: Sphaerotheca fuliginea; experiment: In vivo preventive test on Sphaerotheca fuliginea (cucumber); settings: 500 ppm of active ingredient, evaluated 7 days after inoculation
[9] = tested on: Pyrenophora teres; experiment: In vivo preventive test on Pyrenophora teres (barley); settings: 500 ppm of active ingredient, evaluated 7-9 days after inoculation
Experimental: The plants remain for 48 hours in an incubation cabinet at 22° C. and a relative atmospheric humidity of 100%.

[10] = tested on: Alternaria solani; experiment: In vivo preventive test on Alternaria solani (tomato); settings: 500 ppm of active ingredient, evaluated 7 days after inoculation
Experimental: The plants remain for one day in an incubation cabinet at approximately 22° C. and a relative atmospheric humidity of 100%. Then the plants are placed in an incubation cabinet at approximately 20° C. and a relative atmospheric humidity of 96%.

[11] = tested on: Cochliobolus miyabeanus; settings: rice, protective, 250 ppm of active ingredient, evaluated 4 days after inoculation
Experimental: In Vivo Protective Test on Cochliobolus Miyabeanus (Rice)
Solvent: 28.5 parts by weight of acetone
Emulsifier: 1.5 part by weight of polyoxyethylene alkyl phenyl ether
One day after spraying, the plants are inoculated with an aqueous spore suspension of the causal agent of rice brown spot (Cochliobolus miyabeanus). The plants are then placed in an incubator at approximately 25° C. and a relative atmospheric humidity of approximately 100% for 1 day.
The test is evaluated 4 days after the inoculation.

[12] = tested on: Phakopsora pachyrhizi; experiment: In vivo protective test on Phakopsora pachyrhizi (soybeans); settings: 250 ppm of active ingredient, evaluated 11 days after inoculation
Experimental: In Vivo Protective Test on Phakopsora Pachyrhizi (Soybeans)
The test is evaluated 11 days after the inoculation.

[13] = tested on: Pyricularia oryzae; format: in vivo; settings: rice, protective, 250 ppm of active ingredient, evaluated 5 days after inoculation
[14] = tested on: Rhizoctonia solani; experiment: In vivo protective test on Rhizoctonia solani (rice); settings: 250 ppm of active ingredient, evaluated 4 days after inoculation
From the text: In Vivo Protective Test on Rhizoctonia Solani (Rice)

Row | SMILES | Efficacy [1] | Efficacy [2] | Efficacy [3] | Efficacy [4] | Efficacy [5] | logP [6] | Efficacy [7] | Efficacy [8] | Efficacy [9] | Efficacy [10] | Efficacy [11] | protection (efficacy) [12] | Efficacy [13] | Efficacy [14] | chromatographic logP [6]
1 | Cn1nc(C(F)F)c(C(=O)N2CCCC2Cc2ccccc2F)c1F (stereo not shown) [Example 57] | 100% | 100% | 100% | 100% | 100% | 2.86 | 100% | 94% | 100% | 94% |  |  |  |  | 
2 | CCC(c1ccccc1)C1CCCN1C(=O)c1c(C(F)F)nn(C)c1F (stereo not shown) [Example 53] | 100% | 88% | 100% | 100% | 100% | 3.48 | 100% | 93% | 100% | 94% | 95% | 85% |  |  | 
3 | Cn1nc(C(F)F)c(C(=O)N2CCCC2Cc2ccccc2)c1F (stereo not shown) [Example 52] | 100% | 89% | 100% | 100% | 100% | 2.84 | 100% |  | 100% | 100% |  |  |  |  | 
4 | Cn1nc(C(F)F)c(C(=O)N2CCCC2Cc2cccc(Cl)c2)c1F (racemic) [Example 64] | 100% | 100% | 100% | 100% | 100% | 3.25 | 93% | 93% | 100% |  |  |  |  |  | 
5 | Cn1nc(C(F)F)c(C(=O)N2CCCC2Cc2c(F)cccc2Cl)c1F (racemic) [Example 67] | 100% | 94% | 100% | 100% | 100% | 3.15 | 100% | 95% | 100% | 100% |  |  |  |  | 
6 | Cn1nc(C(F)F)c(C(=O)N2CCCC2Cc2cccc(F)c2)c1F (stereo not shown) [Example 58] | 99% | 100% | 100% | 100% | 100% | 2.90 | 100% | 96% | 100% | 89% |  |  |  |  | 
7 | Cc1cc(C)c(CC2CCCN2C(=O)c2c(C(F)F)nn(C)c2F)cc1C (racemic) [Example 66] | 100% | 100% | 90% |  | 100% | 3.81 |  | 88% | 100% | 100% | 98% |  | 97% | 80% | 
8 | Cn1nc(C(F)F)c(C(=O)N2CCCC2Cc2ccc(Cl)cc2)c1F (racemic) [Example 65] | 100% |  | 100% | 100% | 100% | 3.29 | 100% | 95% | 100% | 94% |  |  |  |  | 
9 | Cc1cccc(CC2CCCN2C(=O)c2c(C(F)F)nn(C)c2F)c1 (stereo not shown) [Example 55, [3-(difluoromethyl)-5-fluoro-1-methyl-1H-pyrazol-4-yl][2-(3-methyl-benzyl)pyrrolidin-1-yl]methanone] | 100% | 100% | 100% | 100% | 100% |  | 100% | 95% | 100% |  |  |  |  |  | 3.21
10 | Cn1nc(C(F)F)c(C(=O)N2CCC[C@H]2COc2c(Cl)cc(Cl)cc2Cl)c1F [Example 82] |  | 100% | 86% | 100% | 100% | 4.24 |  | 100% |  |  | 93% |  | 98% | 100% | 
11 | Cn1nc(C(F)F)c(C(=O)N2CCCC2Cc2ccccc2Cl)c1F (stereo not shown) [Example 60] | 100% | 100% |  | 100% | 100% | 3.06 | 100% | 95% | 100% | 100% |  |  |  |  | 
12 | Cc1ccccc1CC1CCCN1C(=O)c1c(C(F)F)nn(C)c1F (stereo not shown) [Example 54] | 100% | 100% | 100% | 100% | 100% | 3.13 | 100% | 95% | 95% | 94% |  |  |  |  | 
13 | Cc1ccc(CC2CCCN2C(=O)c2c(C(F)F)nn(C)c2F)cc1 (stereo not shown) [Example 56] | 98% | 89% | 100% | 100% | 100% | 3.23 | 93% | 81% | 100% | 94% |  |  |  |  | 
14 | Cn1nc(C(F)F)c(C(=O)N2CCCC2c2cccc(C(F)(F)F)c2)c1F (stereo not shown) [Example 17] |  |  |  |  |  | 3.06 |  | 95% | 100% | 100% | 98% |  | 92% |  | 
